pIC50: −log10 of the molar value.
How the values were obtained:
[1] = target: T1, Recombinant Human 5′-Nucleotidase (CD73) (Homo sapiens, UniProt P21589); test: CD73 Enzyme Assay; assay type: biochemical; details: 0.5 nM human CD73, 30 μM AMP, PiColorLock phosphate detection, OD 635 nm; read-out: Potency (IC50)
T1 construct: CHO derived CD73 (Trp27-Lys547), with a C-terminal 6-His tag; 6-His (C); purchased R&D 5795-EN; host or cells: CHO
T1 sequence (P21589 27-547): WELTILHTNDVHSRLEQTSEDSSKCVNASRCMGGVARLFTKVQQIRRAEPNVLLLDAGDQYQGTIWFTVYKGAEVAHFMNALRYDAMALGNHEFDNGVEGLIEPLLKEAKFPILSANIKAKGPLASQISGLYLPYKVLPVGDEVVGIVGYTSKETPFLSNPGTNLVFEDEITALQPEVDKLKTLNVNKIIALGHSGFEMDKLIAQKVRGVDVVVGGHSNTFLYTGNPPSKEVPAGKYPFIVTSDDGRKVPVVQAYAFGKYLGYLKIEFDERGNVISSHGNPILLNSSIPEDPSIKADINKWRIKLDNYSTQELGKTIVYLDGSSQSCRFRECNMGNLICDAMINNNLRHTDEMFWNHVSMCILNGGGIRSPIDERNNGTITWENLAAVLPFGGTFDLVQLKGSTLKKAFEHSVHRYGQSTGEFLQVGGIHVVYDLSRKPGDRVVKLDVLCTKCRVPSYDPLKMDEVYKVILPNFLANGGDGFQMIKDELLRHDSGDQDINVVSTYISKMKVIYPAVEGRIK
Outline: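 CHO-derived human CD73 (Trp27-Lys547, C-terminal His tag; 0.5 nM) preincubated with compound 15 min at 25° C in Tris pH 7.5 with MgCl2 and Tween-20. Reaction with 30 μM AMP ran 20 min at 37° C; released phosphate read by malachite green at 635 nm, IC50 from 4-parameter logistic fit.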

[2] = target: T2, Cell surface CD73 of U87 MG human glioblastoma cells (Homo sapiens, UniProt P21589); test: CD73 Cellular Assay; assay type: cell-based; details: 5000 cells per well, 30 μM AMP, PiColorLock phosphate detection in supernatant, read-out: Potency (IC50)
T2 construct: Cell surface CD73 catalyzes the conversion of adenosine monophosphate (AMP) to adenosine and inorganic phosphate; endogenous in cells; host or cells: U87 MG human glioblastoma cells
T2 sequence (P21589 27-549): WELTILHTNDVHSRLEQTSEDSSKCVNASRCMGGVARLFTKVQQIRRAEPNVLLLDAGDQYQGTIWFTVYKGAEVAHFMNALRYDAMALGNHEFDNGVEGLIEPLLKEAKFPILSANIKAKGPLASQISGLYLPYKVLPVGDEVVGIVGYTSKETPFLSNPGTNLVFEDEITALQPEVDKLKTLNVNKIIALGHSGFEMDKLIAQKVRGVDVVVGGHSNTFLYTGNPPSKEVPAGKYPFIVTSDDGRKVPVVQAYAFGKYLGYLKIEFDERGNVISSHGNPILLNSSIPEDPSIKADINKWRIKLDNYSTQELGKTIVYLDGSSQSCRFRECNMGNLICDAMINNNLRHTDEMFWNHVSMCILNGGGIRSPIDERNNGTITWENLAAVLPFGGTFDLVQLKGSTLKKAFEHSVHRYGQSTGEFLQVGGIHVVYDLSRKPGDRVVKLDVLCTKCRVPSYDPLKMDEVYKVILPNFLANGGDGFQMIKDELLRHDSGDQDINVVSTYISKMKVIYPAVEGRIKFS
Procedure: Cell surface CD73 catalyzes the conversion of adenosine monophosphate (AMP) to adenosine and inorganic phosphate. U87 MG human glioblastoma cells express high level of CD73. Cells are treated with compounds in a 96-well assay plate and supernatants are collected into a 384-well detection plate. The concentration of inorganic phosphate (Pi) in the supernatants is determined using the phosphate detection reagent, PiColorLock™ (Innova Bioscience, Cat #303-0125) following the manufacturer's instructions.
Briefly, on the day of the assay, U87 MG cells were harvested and resuspended in assay buffer which consisted of 20 mM HEPES, pH=7.4, 137 mM NaCl, 5.4 mM KCl, 1.3 mM CaCl2, 4.2 mM NaHCO3 and 0.1% glucose. To test the effect of compounds on cellular CD73 enzymatic activity, 500 nL/well of compounds dissolved in DMSO were added to a 96-well TC-treated microplate (Corning #3599). Next, 80 μL/well of U87 MG cells in assay buffer were added to assay plate. After 30 minutes of incubation in an atmosphere of 5% CO2 at 37° C., 20 μL/well of 150 μM AMP (Adenosine 5′-monophosphate monohydrate, Sigma, Cat #01930) in assay buffer was added to assay plate. Final assay conditions consisted of 5000 cells per well in 0.5% DMSO and 30 μM AMP substrate. After 50 minutes of incubation in an atmosphere of 5% CO2 at 37° C., 50 μL/well of supernatant was transferred to the 384-well detection plate (Corning® NBSTM 384 well plates, Cat #3640). Meanwhile “Gold mix” was prepared shortly before use by adding 1/100 volume of accelerator to the PiColorLock™ Gold reagent. 12 μL/well of the “Gold mix” was added to detection plate containing 50 μL/well of supernatant and incubated at 25° C. for 5 minutes. 5 μL/well stabilizer was added to the detection plate and incubated at 25° C. for 30 minutes. The absorbance at 635 nm was measured on a Spark 10M instrument (TECAN).
The percent (%) inhibition at each concentration of a compound was calculated relative to the OD value in the Max and Min control wells contained within each assay plate. The Max control wells contained cells and substrate as 0% inhibition, and the Min control wells only contained cells as 100% inhibition. The concentrations and percent inhibition values for a test compound are plotted and the concentration of the compound required to achieve 50% inhibition (IC50) was determined with a four-parameter logistic dose response equation.

## O=P(O)(O)CP(=O)(O)OC[C@H]1O[C@@H](c2ccc3c(NCc4ccccc4Cl)nc(Cl)nc3c2)[C@H](O)[C@@H]1O [Compound 23, (((((2R,3S,4R,5S)-5-(2-chloro-4((2-chlorobenzyl)amino)quinazolin-7-yl)-3,4-dihydroxytetrahydrofuran-2-yl)methoxy)(hydroxy)phosphoryl)methyl)phosphonic acid]
[1]
  pIC50: > 8.00
[2]
  pIC50: > 8.00

## O=P(O)(O)CP(=O)(O)OC[C@H]1O[C@@H](c2ccc3c(NC4CCc5ccccc54)nc(Cl)nc3c2)[C@H](O)[C@@H]1O (stereo partly drawn) [Compound 25, [({[(2R,3S,4R,5S)-5-[2-chloro-4-(2,3-dihydro-1H-inden-1-ylamino)quinazolin-7-yl]-3,4-dihydroxyoxolan-2-yl]methoxy}(hydroxy)phosphoryl)methyl]phosphonic acid]
[1]
  pIC50: > 8.00
[2]
  pIC50: > 8.00

## O=P(O)(O)CP(=O)(O)OC[C@H]1O[C@@H](c2ccc3c(NCC4CCCC(O)C4)nc(Cl)nc3c2)[C@H](O)[C@@H]1O (stereo partly drawn) [Compound 28, (((((2R,3S,4R,5S)-5-(2-chloro-4-(((3-hydroxycyclohexyl)methyl)amino)quinazolin-7-yl)-3,4-dihydroxytetrahydrofuran-2-yl)methoxy)(hydroxy)phosphoryl)methyl)phosphonic acid]
[1]
  pIC50: > 8.00
[2]
  pIC50: 6.00 to 7.00

## O=P(O)(O)CP(=O)(O)OC[C@H]1O[C@@H](c2ccc3c(NC4CCCCC4)nc(Cl)nc3c2)[C@H](O)[C@@H]1O [Compound 31, (((((2R,3S,4R,5S)-5-(2-chloro-4-(cyclohexylamino)quinazolin-7-yl)-3,4-dihydroxytetrahydrofuran-2-yl)methoxy)(hydroxy)phosphoryl)methyl)phosphonic acid]
[1]
  pIC50: > 8.00
[2]
  pIC50: > 8.00

## O=P(O)(O)CP(=O)(O)OC[C@H]1O[C@@H](c2ccc3c(NC4CCCC4)ncnc3c2)[C@H](O)[C@@H]1O [Compound 46, [({[(2R,3S,4R,5S)-5-[4-(cyclopentylamino)quinazolin-7-yl]-3,4-dihydroxyoxolan-2-yl]methoxy}(hydroxy)phosphoryl)methyl]phosphonic acid]
[1]
  pIC50: > 8.00
[2]
  pIC50: < 6.00
